Measured values taken from patent US12077759B2, “Compositions and methods for treating pathologic calcification” (Washington University, priority 2021, dated 2024).

System: Wnt/β-catenin pathway
Test: Treatment of ACLp cells with Wnt agonist SKL2001 (rescue of osteogenesis)
Format: cell-based, human
Conditions: SKL2001 10 μM
Description: In short, 5×10^5 ACLp cells were first treated with KIF26B shRNA or scrambled shRNA for 48 hours and selected by Puromycin for another 48 hours. Afterward, 2×10^5 ACLp cells were seeded in a 12-well plate. Next osteogenesis was induced as above but in addition, SKL2001 (10 μM) dissolved in dimethyl sulfoxide (DMSO, Sigma-Aldrich) or DMSO only (vehicle) was added to cells. The medium was changed 3 times a week. After 7 days of osteogenic induction, the protein levels of active and total β-catenin were detected by Western blot as described above. After culture for 28 days, the Alizarin red staining was performed as above. After 28 days of osteogenic induction, RNA was isolated and expression of AXIN2 and WNT16 was measured using standard methods detailed above.

## O=C(NCCCn1ccnc1)c1cc(-c2ccco2)on1 [SKL2001]
ACLp cells transduced with KIF26B shRNA, 7 days of osteogenic induction
  decrease of active β-catenin protein levels after KIF26B knockdown (Western blot): significantly attenuated
ACLp cells transduced with KIF26B shRNA, 28 days
  decrease in osteogenesis due to KIF26B loss-of-function (Alizarin red staining): reverted
ACLp cells, 28 days of osteogenic induction, vehicle (DMSO) 1.00±0.02, p<0.001
  AXIN2 mRNA expression: 2.20±0.08
ACLp cells, 28 days of osteogenic induction, vehicle (DMSO) 1.00±0.14, p<0.001
  WNT16 mRNA expression: 3.06±0.13
